The values that follow come from patent publication US20230365541A1, “INHIBITOR OF ENHANCER OF ZESTE HOMOLOGUE 2, AND USE THEREOF” (HAISCO PHARMACEUTICALS PTE. LTD., priority 2020, published 2023).

pIC50: −log10 of the molar value.

In one series the target is EZH2 (Homo sapiens (Human), UniProt Q15910). Briefly: Test method for EZH2 enzyme activity. The series is classed as biochemical. Particulars: H3K27(21-44) and [3H]-SAM. In short, it runs like this: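 EZH2 (3 nM final) preincubated 15 min with compound in Tris-HCl pH 9.0 buffer, then H3K27(21-44) peptide and [3H]-SAM added (mixture at 200 nM and 100 nM) for 60 min at room temperature. Reaction quenched with cold SAM; flashplate scintillation read, inhibition normalized to controls and IC50 fitted.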

The subject of another series is SU-DHL-6 cells. Briefly: SU-DHL-6 cell proliferation test. The series is classed as cell-based, human. Particulars: Homo sapiens, SU-DHL-6, 336 h, incubated for 14 days. The protocol: SU-DHL-6 cells are human B-cell lymphoma cell lines purchased from ATCC and cultured under the following conditions: RPMI-1640+10% FBS+1% double antibody in a 37° C., 5% CO2 incubator. The cells were plated in a 12-well plate, with a cell concentration of 1×10^5 cells/mL. After the cells were plated, the compounds at different concentrations were added and cultured in a 37° C., 5% CO2 incubator. The cells were counted every 3-4 days (Countstar automated cell counter), centrifuged to remove the supernatant, re-diluted to 1×10^5 cells/mL and plated, and then the compounds at different concentrations were further added. After the mixture was incubated for 14 days and the cells were counted, the test was terminated, and the IC50 values were calculated by using the Origen9.2 software.

Series [1] can be described thus: Pharmacokinetic experiment in mice (intravenous 5 mg/kg or intragastric 30 mg/kg). Particulars: for AUC: read-out: AUC; for C0: read-out: C0; for bioavailability: PO 30 mg/kg vs IV 5 mg/kg. It counts as in vivo. The protocol: The administration was performed according to table 5.
The concentrations of the compounds in EDTA-K2 anticoagulant plasma were determined by the LC-MS/MS method. The linear range of the standard curve of the compounds is 2-2000 ng/mL. After subjected to precipitating proteins with acetonitrile, the samples were analyzed by LC-MS/MS. The standard curve was subjected to a regression calculation using the weighted least square method (W=1/X^2), and quantified by calculating the ratio of test compound peak area to internal standard peak area.
• (1) except to the blank sample, 400 μL of internal standard working solution (Verapamil internal standard concentration in precipitant acetonitrile is 10.0 ng/mL) was added to a 1.5 mL centrifuge tube containing 30 μL of standard curve samples and quality control samples; • 200 μL of internal standard working solution (Verapamil internal standard concentration in precipitant acetonitrile is 10.0 ng/mL) was added to a 1.5 mL centrifuge tube containing 15 μL of unknown samples; • and 400 μL of acetonitrile was added to the blank sample; • (2) the mixture was mixed evenly for about 1 min in a vortex mixer; • (3) centrifugation was carried out at 10000 rpm at 4C for 10 mi; • (4) 175 μL of the supernatant was transferred to a new 96-well polypropylene plate, and then the plate was sealed and placed in a 10° C. sample tray for injection.

The conditions of series [2]: mouse, in vivo, po, 20 mg/kg.
Description: (§1) Experimental objective: a single dose of test compounds was administered to ICR mice intragastrically, and the concentrations of the test compounds in plasma of the mice were measured to evaluate pharmacokinetic characteristics of the test compounds in the mice.
(§2) Experimental animal: male ICR mice, about 20-25 g, 6-8 weeks old, 3 mice/compound, purchased from Chengdu Dossy Experimental Animals Co., Ltd.
(§3) Experimental method: on the day of the experiment, three ICR mice were randomly grouped according to their body weight. The animals were fasted with water available for 12 to 14 hours one day before the administration, and were fed 4 hours after the administration.
(§4) Before and after the administration, 0.03 mL of blood was taken from the orbit of the animals under isoflurane anesthesia, and placed in an EDTAK2 centrifuge tube. Centrifugation was carried out at 5000 rpm at 4° C. for 10 min, and the plasma was collected.
(§5) Time points for sample collection comprise 0 (before the administration), 15 min, 30 min, 1 h, 2 h, 4 h, 6 h, 8 h and 24 h.
(§6) Before analysis and detection, all samples were stored at −80° C.
Series [3] can be described thus: Pharmacokinetic experiment in mice (single intragastric dose, 20 mg/kg). The note with it: male, ICR, mouse, plasma, po.
Description: as §1, §2, §3, §4, §5, §6
[4] abbreviates: male, ICR, mouse, plasma, iv, 5 mg/kg, IV 5 mg/kg.
Where [5] appears, read: male, ICR, mouse, plasma, po, 30 mg/kg, PO 30 mg/kg.
Setting [6] is: male, ICR, mouse, plasma, po, 30 mg/kg.

EZH2, sequence (Q15910 other isoform, or with tags, fused parts or gaps isoform Q15910-2): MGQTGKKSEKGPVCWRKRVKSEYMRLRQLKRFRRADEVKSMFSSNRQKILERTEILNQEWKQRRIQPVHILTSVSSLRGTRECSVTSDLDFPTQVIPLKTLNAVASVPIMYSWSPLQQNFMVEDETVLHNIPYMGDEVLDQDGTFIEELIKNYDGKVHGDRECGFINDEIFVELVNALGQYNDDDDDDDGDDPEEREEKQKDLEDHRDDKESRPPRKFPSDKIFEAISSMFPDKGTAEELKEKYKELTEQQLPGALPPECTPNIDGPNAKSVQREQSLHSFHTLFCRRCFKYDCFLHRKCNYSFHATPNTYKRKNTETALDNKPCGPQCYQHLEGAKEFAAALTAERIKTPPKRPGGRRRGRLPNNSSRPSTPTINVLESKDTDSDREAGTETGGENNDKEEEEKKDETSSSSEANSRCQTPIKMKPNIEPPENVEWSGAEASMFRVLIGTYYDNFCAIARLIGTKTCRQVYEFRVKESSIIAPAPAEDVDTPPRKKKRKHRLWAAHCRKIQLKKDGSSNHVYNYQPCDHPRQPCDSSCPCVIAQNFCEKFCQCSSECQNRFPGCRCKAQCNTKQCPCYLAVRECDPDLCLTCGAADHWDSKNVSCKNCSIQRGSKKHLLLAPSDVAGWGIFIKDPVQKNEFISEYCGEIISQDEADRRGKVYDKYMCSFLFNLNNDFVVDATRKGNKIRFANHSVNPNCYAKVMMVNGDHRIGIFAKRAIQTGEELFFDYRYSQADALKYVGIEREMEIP
EZH2, sequence (O75530 2-441 partner): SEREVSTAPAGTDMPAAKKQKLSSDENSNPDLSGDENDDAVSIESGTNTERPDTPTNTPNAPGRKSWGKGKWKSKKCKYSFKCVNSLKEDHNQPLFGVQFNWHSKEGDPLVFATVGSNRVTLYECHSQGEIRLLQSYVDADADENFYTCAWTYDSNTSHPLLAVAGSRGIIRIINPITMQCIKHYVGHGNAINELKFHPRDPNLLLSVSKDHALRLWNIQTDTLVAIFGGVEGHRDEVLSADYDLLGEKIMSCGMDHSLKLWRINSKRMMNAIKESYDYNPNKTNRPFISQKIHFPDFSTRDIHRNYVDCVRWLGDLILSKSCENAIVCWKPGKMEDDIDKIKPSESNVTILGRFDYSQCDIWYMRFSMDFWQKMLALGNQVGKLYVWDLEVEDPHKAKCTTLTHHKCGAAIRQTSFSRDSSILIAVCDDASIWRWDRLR
EZH2, sequence (Q15022 2-739 partner): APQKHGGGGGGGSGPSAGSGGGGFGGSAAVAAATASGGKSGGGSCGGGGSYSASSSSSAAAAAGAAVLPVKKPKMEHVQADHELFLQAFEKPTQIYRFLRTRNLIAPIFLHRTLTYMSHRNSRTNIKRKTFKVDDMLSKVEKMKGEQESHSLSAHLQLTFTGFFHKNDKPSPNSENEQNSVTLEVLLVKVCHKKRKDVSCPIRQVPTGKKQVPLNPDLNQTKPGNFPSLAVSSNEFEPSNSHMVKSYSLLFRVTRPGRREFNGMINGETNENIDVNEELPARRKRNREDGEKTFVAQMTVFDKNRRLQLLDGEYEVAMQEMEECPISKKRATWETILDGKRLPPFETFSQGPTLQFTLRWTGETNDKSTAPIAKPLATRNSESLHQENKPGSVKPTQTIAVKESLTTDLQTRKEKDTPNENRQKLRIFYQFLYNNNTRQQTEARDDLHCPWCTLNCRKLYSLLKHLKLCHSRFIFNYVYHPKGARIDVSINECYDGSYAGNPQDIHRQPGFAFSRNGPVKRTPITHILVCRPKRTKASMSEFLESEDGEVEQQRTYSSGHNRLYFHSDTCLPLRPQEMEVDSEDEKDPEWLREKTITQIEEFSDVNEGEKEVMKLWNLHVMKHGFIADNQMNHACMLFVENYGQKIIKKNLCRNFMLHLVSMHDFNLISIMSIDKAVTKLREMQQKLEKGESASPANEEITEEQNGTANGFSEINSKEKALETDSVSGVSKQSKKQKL
EZH2, sequence (Q09028 2-425 partner): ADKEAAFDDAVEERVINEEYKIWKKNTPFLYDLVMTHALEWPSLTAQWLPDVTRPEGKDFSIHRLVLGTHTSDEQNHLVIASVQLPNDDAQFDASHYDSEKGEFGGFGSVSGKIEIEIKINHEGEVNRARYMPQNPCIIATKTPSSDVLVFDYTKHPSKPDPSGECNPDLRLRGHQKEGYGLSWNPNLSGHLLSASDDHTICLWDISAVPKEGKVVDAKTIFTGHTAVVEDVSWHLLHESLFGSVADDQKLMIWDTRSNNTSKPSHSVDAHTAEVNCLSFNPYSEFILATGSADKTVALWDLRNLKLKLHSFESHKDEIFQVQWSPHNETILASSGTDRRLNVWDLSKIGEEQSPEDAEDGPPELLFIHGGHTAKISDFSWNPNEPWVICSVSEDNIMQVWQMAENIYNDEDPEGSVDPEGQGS
EZH2, sequence (Q6ZN18 whole entry partner): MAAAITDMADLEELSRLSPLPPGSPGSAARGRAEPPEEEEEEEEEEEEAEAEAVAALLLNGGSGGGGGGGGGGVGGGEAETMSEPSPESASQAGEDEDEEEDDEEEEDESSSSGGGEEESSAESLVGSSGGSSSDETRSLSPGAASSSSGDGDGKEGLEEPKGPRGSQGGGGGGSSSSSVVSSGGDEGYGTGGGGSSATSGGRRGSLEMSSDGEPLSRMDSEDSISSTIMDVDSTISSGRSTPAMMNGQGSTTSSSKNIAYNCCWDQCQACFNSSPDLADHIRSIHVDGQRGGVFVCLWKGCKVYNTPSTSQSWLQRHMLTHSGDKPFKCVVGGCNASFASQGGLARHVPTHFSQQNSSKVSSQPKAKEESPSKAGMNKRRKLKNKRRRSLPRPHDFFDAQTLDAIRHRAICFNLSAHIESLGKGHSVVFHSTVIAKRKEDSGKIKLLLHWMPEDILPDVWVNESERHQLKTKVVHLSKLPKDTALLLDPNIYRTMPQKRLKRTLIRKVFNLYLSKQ

The compound `[2H]C([2H])(NC(=O)c1cc(Cl)c2c(c1C)OC(C)(C1CCN(CC3CC3)CC1)O2)c1c(SC)cc(C)[nH]c1=O` (centres unmarked) [Compound 27, 7-chloro-2-(1-(cyclopropylmethyl)piperidin-4-yl)-2,4-dimethyl-N-((6-methyl-4-(methylthio)-2-oxo-1,2-dihydropyridin-3-yl)methyl-d2)benzo[d][1,3]dioxole-5-carboxamide] showed a negative-log IC50 (pIC50) at EZH2 of 9.28. Also, the pIC50 with SU-DHL-6 cells is 7.03. Also, in series [1] (setting [4]), the half-life is 1.42 h, the area under the curve (AUC) was determined as 839 ng·h/mL and the C0 is 1970 ng/mL. Besides, in series [1] (setting [5]), the half-life is 0.934 h and the AUC worked out at 2650 ng·h/mL. The compound further gave a bioavailability in series [1] (setting [6]) of 52.7%. For the same compound, the Cmax in series [1] (male, ICR, mouse, plasma, po, 30 mg/kg, PO 30 mg/kg, read-out: Cmax) was found to be 865 ng/mL. Also, in series [1] (male, ICR, mouse, plasma, po, 30 mg/kg, PO 30 mg/kg, read-out: Tmax), the Tmax is 2 h.

As to `CSc1cc(C)[nH]c(=O)c1CNC(=O)c1cc(Cl)c2c(c1C)OC(C)(C1CCN(CC3CC(F)(F)C3)CC1)O2` (single isomer, unassigned; isomer 1) [Compound 10, isomer 1, 7-chloro-2-(1-((3,3-difluorocyclobutyl)methyl)piperidin-4-yl)-2,4-dimethyl-N-((6-methyl-4-(methylthio)-2-oxo-1,2-dihydropyridin-3-yl)methyl)benzo[d][1,3]dioxole-5-carboxamide], in series [2], the Conclusion on pharmacokinetics result was “Conclusion: the compounds of the present disclosure, especially isomer 1 of compound 10 and isomer 1 of compound 34, have good pharmacokinetics with long half-life and short time to reach the highest concentration”; the “Curve area AUC” value was determined as 1097 h · ng · mL − 1; the “Half-life T1/2” value was determined as 1.72 h; the “Plasma drug concentration Cmax” value was 1238 ng/mL. Moreover, the “Time to reach peak Tmax” value in series [2] was 0.25.

`[2H]C([2H])(NC(=O)c1cc(Cl)c2c(c1C)OC(C)([C@H]1CC[C@@H](NC3CC(F)(F)C3)CC1)O2)c1c(SC)cc(C)[nH]c1=O` (single isomer, unassigned) [Compound 44, isomer 1, 7-chloro-2-(4-((3,3-difluorocyclobutyl)amino)cyclohexyl)-2,4-dimethyl-N-((6-methyl-4-(methylthio)-2-oxo-1,2-dihydropyridin-3-yl)methyl-d2)benzo[d][1,3]dioxole-5-carboxamide] gave a pIC50 against EZH2 of 9.32. In the series on SU-DHL-6 cells, this compound had a negative logarithm of the IC50 (pIC50) of 7.62. Also, the T1/2 in series [1] (ICR mice, IV 5 mg/kg, listed as Compound 44, Isomer 1) is listed as 0.427 h. Besides, in series [1] (ICR mice, PO 30 mg/kg, listed as Compound 44, Isomer 1), the Cmax was 971 ng/mL. In series [1] (setting [4]), the AUC stood at 574 ng·h/mL and the C0 amounted to 2340 ng/mL. In addition, in series [1] (setting [5]), the half-life is 1.27 h and the exposure (AUC) is 1530 ng·h/mL. Further, the bioavailability in series [1] (setting [6]) is 44.3%.

Compound `CSc1cc(C)[nH]c(=O)c1CNC(=O)c1cc(Cl)c2c(c1C)OC(C)([C@H]1CC[C@@H](N[C@H]3C[C@H](F)C3)CC1)O2` (single isomer, unassigned) [Compound 34, isomer 1, 7-chloro-2-(4-((trans-3-fluorocyclobutyl)amino)cyclohexyl)-2,4-dimethyl-N-((6-methyl-4-(methylthio)-2-oxo-1,2-dihydropyridin-3-yl)methyl)benzo[d][1,3]dioxole-5-carboxamide] showed a pIC50 against EZH2 of 9.24. In series [3], this compound gave an exposure (AUC) of 1350 ng·h/mL, a Cmax of 598 ng/mL and a half-life of 3.37 h. The compound also showed a negative logarithm of the IC50 (pIC50) with SU-DHL-6 cells of 7.48.

In general, pIC50 refers to the negative decadic logarithm of the IC50, by convention in mol/L. Low readings indicate a high IC50, high ones a low IC50. As a reminder, the half-life is the time needed for the level to fall by half in the phase considered. High values mean slow loss, low ones fast loss. One may read the AUC as concentration integrated over time. What is called bioavailability is dose-corrected exposure relative to a reference, in per cent. The Cmax is the highest concentration seen after dosing. For orientation: Tmax means the time at which the peak concentration occurs.
